Where a name gives a salt, the structure may show the parent alone. Read-outs that look alike come from different tables or passages of the source.
Columns and labels:
[1] = tested on: acetic test upon mice; test: acetic test upon mice, analgesic effect (Siegmund method as modified by Koster, Anderson and Debeer); type: in vivo; details: Mus musculus
Description: The compounds are identified by the numbers of the examples.

[2] = tested on: carrageenin-induced oedema; test: carrageenin-induced oedema test upon rats, anti-inflammatory effect (Winter et al.); type: in vivo; details: Rattus norvegicus, phenylbutazone control, read-out: Carrageenin (A.D. 30, mg/kg)
Experimental: (§1) The pharmacological, analgesic and anti-inflammatory effectiveness and the slightly ulcerating effect of the propionic acids and their functional derivatives was determined by various methods. The compounds are identified by the numbers of the examples.
The anti-inflammatory effect of the compounds claimed was established, inter alia, by the carrageenin-induced oedema test upon rats (Winter et al. -- Proc. Soc. Exp. Biol. Med. 1962, Vol. III, pages 544 and 547). The results obtained with certain of the compounds of the invention are given below in Table II (phenylbutazone was used as a control).

[3] = observations made during clinical trials; type: in vivo, human (patients: Mrs. / Mr.)
Experimental: Pharmaceutical compositions comprising a compound of the invention as their active ingredient and a physiologically acceptable, solid or liquid pharmaceutical excipient or diluent enable the active ingredient to be administered in daily doses of from 20 to 1000 mg. Among the observations made during clinical trials with the compound of Example 13 the following may be mentioned:
Among the observations made during clinical trials of the compound of Example 22 may be mentioned the following five: […]

[4] = tested on: ulcers; test: aggravation of ulcers already caused in rats (Shay et al.), ulcerating effect; type: in vivo
Experimental: as §1
The compounds were compared with phenylbutazone in order to evaluate their ulcerating effect. The method used was that of aggravating ulcers which has already been caused in rats by the procedure described by Shay et al (Gastroenterology, 1945, Vol. 5, pages 43 to 61).

[5] = recently discovered; cited from earlier work
[6] = mice, acetic test, aspirin control, read-out: ED50
[7] = A person, inflammation of arteries in lower limbs, four 150 mg tablets per day, five days
[8] = A person, lumbar arthrosis, six 150 mg tablets per day, 10 days
[9] = A person, removal of left knee-cap, six 150 mg tablets per day, 5 days
[10] = A person, very intense lumbar pain, four 150 mg tablets per day, ten days
[11] = A person, cervical pain from arthritic spine, four 100 mg tablets per day, 8 days
[12] = A person, pseudoarthrosis of the knee, five 100 mg tablets per day, 8 days
[13] = A person, stripping of varicose veins, six 100 mg tablets per day, 5 days
[14] = person one, sciatica, four 100 mg tablets per day, 10 days
[15] = person two, post-fracture gonarthrosis, four 100 mg tablets per day, 10 days

For `CC(C(=O)OCCN1CCOCC1)c1ccc2oc(-c3cccs3)cc(=O)c2c1` (stereo not drawn) [Example 32, The acid oxalate of β-morpholinoethyl-2-[2'-(α-thienyl)-6'-chromonyl]propionate], the ED50 [1, 6] was 4.6 mg/kg.

For `CCCOC(=O)C(C)c1ccc2oc(-c3ccccc3)cc(=O)c2c1` (stereo not shown) [Example 25, Propyl 2-(2'-phenyl-6'-chromonyl)propionate], the ED30 [2] was 85 mg/kg and the ED50 [1, 6] was 6 mg/kg.

Work on `CC(=O)Oc1ccccc1C(=O)O` [Aspirin, reference compound] yielded an ED50 [1] of 130 mg/kg.

With `CC(C(=O)O)c1ccc2oc(-c3ccccc3)cc(=O)c2c1` (stereo not shown) [Example 22, 2-(6'-Flavonyl)propionic acid] the ED30 [2] was 65 mg/kg, the duration of relief [3, 7] was “more than three” and the relief [3, 7] was “very distinct relief”. The “time after administration until relief” value [3, 7] was “less than 30 minutes”, the duration of relief [3, 8] was “three” and the functional improvement [3, 8] was “appreciable functional improvement”. For the same compound, the “time after administration until relief” value [3, 8] was “thirty”, the “results against pain and signs of inflammation” value ([3]; A person, pain in neck and arm, four 150 mg tablets per day, eight days) was “very good” and the duration of relief [3, 9] was > 3 h. For the same compound, the relief [3, 9] was “complete”, the “time until relief appears” value [3, 9] was “less than 30 minutes” and the antalgic effect [3, 10] was “excellent”. The “distance which the patient could move their fingertips towards the ground” value [3, 10] was “from 40 to 5”, the improvement [3, 10] was “very pronounced improvement” and the tolerance ([3]; A person, four 150 mg tablets per day, eight days) was “complete”. The tolerance ([3]; A person, four 150 mg tablets per day, five days) was “satisfactory”, the tolerance ([3]; A person, four 150 mg tablets per day, ten days) was “complete” and the tolerance ([3]; A person, six 150 mg tablets per day, 5 days) was “good”. For the same compound, the tolerance ([3]; A person, six 150 mg tablets per day, 10 days) was “complete”, the “Aggravation of ulceration, Coefficient” value ([4]; dose 300 mg/kg body weight/PO) was 60 and the ED50 [1, 6] was 9 mg/kg.

For `CC(C(=O)O)c1ccc2oc(-c3cccs3)cc(=O)c2c1` (stereo not drawn) [Example 13, 2-[2'-(α-Thienyl)-6'-chromonyl]propionic acid], the ED30 [2] was 10 mg/kg, the analgesic effect [3, 11] was “good” and the “movement in the neck” value [3, 11] was “restored movement to normal amplitude in the neck unaccompanied by pain”. For the same compound, the antiinflammatory effect [3, 12] was “very good”, the “duration of relief of pain” value [3, 12] was “three” and the relief of pain [3, 12] was “good”. The duration of relief [3, 13] was 3 h, the relief [3, 13] was “complete” and the “time after administration until relief apparent” value [3, 13] was “less than 30 minutes”. For the same compound, the tolerance ([3]; A person, five 100 mg tablets per day, 8 days) was “perfect”, the tolerance ([3]; A person, four 100 mg tablets per day, 8 days) was “very good” and the tolerance ([3]; A person, six 100 mg tablets per day, 5 days) was “very good”. The analgesic effect [3, 14] was “excellent”, the “improvement in the results of the Lasegue test” value [3, 14] was “from 45 to 75” and the tolerance ([3]; person one, four 100 mg tablets per day, 10 days) was “complete”. The analgesic effect [3, 15] was “very positive”, the knee flexion improvement [3, 15] was “from 15 to 25” and the “results on the knee” value [3, 15] was “excellent”. For the same compound, the “temperature of the knee” value [3, 15] was “returned to its normal temperature”, the tolerance ([3]; person two, four 100 mg tablets per day, 10 days) was “good” and the “Aggravation of ulceration, Coefficient” value ([4]; dose 300 mg/kg body weight/PO) was 50. The ED50 [1, 6] was 1.5 mg/kg.

For `O=C(O)Cc1ccc2oc(-c3ccccc3)cc(=O)c2c1` [6-(2-Phenylchromonyl) acetic acid], the choleretic activity [5] is listed as “choleretic activity”.

For `CCCCC1C(=O)N(c2ccccc2)N(c2ccccc2)C1=O` [Phenylbutazone, reference compound], the ED30 [2] was 50 mg/kg and the “Aggravation of ulceration, Coefficient” value ([4]; dose 200 mg/kg body weight/PO) was 100.

Work on `COC(=O)C(C)c1ccc2oc(-c3cccs3)cc(=O)c2c1` (stereo not drawn) [Example 29, Methyl 2-[2'-(α-thienyl)-6'-chromonyl]propionate] yielded an ED30 [2] of 37 mg/kg and an ED50 [1, 6] of 2.3 mg/kg.
